Laboratory results: US20250333397A1 (REMIX THERAPEUTICS INC., priority 2021, published 2025)
pIC50: −log10 of the molar value. Where two headings read alike, the source gives them in different places.

Assays:
Format in all cases: cell-based, human
SMN2 mRNA = assay: RT-qPCR splicing assay panel, SMN2 canonical junction (CJ) mRNA; conditions: Homo sapiens
Procedure, shortened: (§1)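 24 h compound exposure of A673 or K562 cells at 37 °C, 10 uM top final concentration, 3-fold steps, DMSO ≤0.25%. Splice-isoform levels determined by qPCR on cDNA from lysates, run at least in duplicate; values expressed as RQ normalized to GAPDH, GUSB or PPIA and DMSO.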

HTT mRNA = assay: RT-qPCR splicing assay, HTT canonical (CJ) and alternative (AJ) junction mRNA; conditions: Homo sapiens; for AC50: read-out: HTT AJ (AC50, increase in AJ mRNA)
Procedure, shortened: as §1

MYB mRNA = assay: RT-qPCR splicing assay, MYB canonical (CJ) and alternative (AJ) junction mRNA; conditions: Homo sapiens; for AC50: read-out: MYB AJ (AC50, increase in AJ mRNA)
Procedure, shortened: as §1

Target C mRNA = assay: RT-qPCR splicing assay panel, Target C canonical junction (CJ) mRNA; conditions: Homo sapiens
Procedure, shortened: as §1

[1] = canonical junction (CJ) mRNA, RT-qPCR panel, Table 4A, read-out: SMN2, decrease in CJ mRNA levels, IC50
[2] = 24 h, Table 3A, A673 or K562 cells, 24 h treatment
[3] = 24 h, Table 3A, A673 or K562 cells, 24 h treatment, read-out: HTT CJ (IC50, decrease in CJ mRNA)
[4] = canonical junction (CJ) mRNA, RT-qPCR panel, Table 4A, read-out: HTT, decrease in CJ mRNA levels, IC50
[5] = 24 h, Table 3A, A673 or K562 cells, 24 h treatment, read-out: MYB CJ (IC50, decrease in CJ mRNA)
[6] = canonical junction (CJ) mRNA, RT-qPCR panel, Table 4A, read-out: MYB, decrease in CJ mRNA levels, IC50
[7] = canonical junction (CJ) mRNA, RT-qPCR panel, Table 4A, read-out: Target C, decrease in CJ mRNA levels, IC50
[8] = 24 h, Table 3B, A673 or K562 cells, 24 h treatment

| Structure (SMILES) | pIC50 (SMN2 mRNA; [1]) | AC50 (HTT mRNA; [2]) [nM] | pIC50 (HTT mRNA; [3]) | pIC50 (HTT mRNA; [4]) | AC50 (MYB mRNA; [2]) [nM] | pIC50 (MYB mRNA; [5]) | pIC50 (MYB mRNA; [6]) | pIC50 (Target C mRNA; [7]) | pIC50 (SMN2 mRNA; Table 4B, gene panel, read-out: SMN2 (IC50, decrease in CJ mRNA levels)) | AC50 (HTT mRNA; [8]) [nM] | pIC50 (HTT mRNA; 24 h, Table 3B, A673 or K562 cells, 24 h treatment, read-out: HTT CJ (IC50, decrease in CJ mRNA)) | pIC50 (HTT mRNA; Table 4B, gene panel, read-out: HTT (IC50, decrease in CJ mRNA levels)) | AC50 (MYB mRNA; [8]) [nM] | pIC50 (MYB mRNA; 24 h, Table 3B, A673 or K562 cells, 24 h treatment, read-out: MYB CJ (IC50, decrease in CJ mRNA)) | pIC50 (MYB mRNA; Table 4B, gene panel, read-out: MYB (IC50, decrease in CJ mRNA levels)) | pIC50 (Target C mRNA; Table 4B, gene panel, read-out: Target C (IC50, decrease in CJ mRNA levels)) |
| --- | --- | --- | --- | --- | --- | --- | --- | --- | --- | --- | --- | --- | --- | --- | --- | --- |
| COc1cc(-c2ccc(-c3ccc(N4CC[C@](C)(NCC5CC5)C4)nn3)c(O)c2)ncn1 [Compound 376, 2-{6-[(3S)-3-[(cyclopropylmethyl)amino]-3-methylpyrrolidin-1-yl]pyridazin-3-yl}-5-(6-methoxypyrimidin-4-yl)phenol] | > 7.00 | < 100 | > 7.00 | > 7.00 | 100 to 1000 | 6.00 to 7.00 | 6.00 to 7.00 | 6.00 to 7.00 | – | – | – | – | – | – | – | – |
| Cn1ccc2cc(O)c(-c3cnc(N4CCC(NC(C)(C)C)C4)nn3)cc2c1=O (stereo not drawn) [Compound 869] | – | – | – | – | – | – | – | – | < 5.00 | > 10000 | < 5.00 | < 5.00 | > 10000 | < 5.00 | < 5.00 | < 5.00 |
| COc1cc(-c2cc(O)c(-c3ccc(N4CC[C@@H](N[C@H]5C[C@H](F)C5)C4)nn3)cc2F)cnn1 [Compound 232] | > 7.00 | 100 to 1000 | > 7.00 | > 7.00 | 100 to 1000 | 6.00 to 7.00 | 6.00 to 7.00 | 6.00 to 7.00 | – | – | – | – | – | – | – | – |
| Cn1ncc(-c2ccc(-c3ccc(N4CC[C@@H](NC(C)(C)C)C4)nn3)c(O)c2)cc1=O [Compound 297, 5-(4-{6-[(3R)-3-(tert-butylamino)pyrrolidin-1-yl]pyridazin-3-yl}-3-hydroxyphenyl)-2-methylpyridazin-3-one] | > 7.00 | < 100 | > 7.00 | > 7.00 | < 100 | > 7.00 | > 7.00 | > 7.00 | – | – | – | – | – | – | – | – |
| COc1cncc(-c2cc(O)c(-c3ccc(N4CC[C@@H](NC5CCC5)C4)nn3)cc2F)c1 [Compound 225, 2-{6-[(3R)-3-(cyclobutylamino)pyrrolidin-1-yl]pyridazin-3-yl}-4-fluoro-5-(5-methoxypyridin-3-yl)phenol] | < 5.00 | > 10000 | < 5.00 | < 5.00 | > 10000 | < 5.00 | < 5.00 | < 5.00 | – | – | – | – | – | – | – | – |
| Cc1ncc(-c2cc(O)c(-c3cnc(OC4CC(C)(C)NC(C)(C)C4)nn3)cc2F)s1 [Compound 435] | > 7.00 | 100 to 1000 | 6.00 to 7.00 | 6.00 to 7.00 | 1000 to 10000 | 5.00 to 6.00 | 5.00 to 6.00 | 6.00 to 7.00 | – | – | – | – | – | – | – | – |
| COc1cc(-c2cc(O)c(-c3ccc(N4CCC(N[C@H]5C[C@H](F)C5)C4)nn3)cc2F)cnn1 (stereo partly drawn) [Compound 274] | > 7.00 | 100 to 1000 | > 7.00 | > 7.00 | 100 to 1000 | 6.00 to 7.00 | 6.00 to 7.00 | 6.00 to 7.00 | – | – | – | – | – | – | – | – |
| COc1cc(-c2cc(O)c(-c3ccc(N4CC[C@@](C)(NCC5CC5)C4)nn3)cc2F)cnn1 [Compound 451, 2-{6-[(3R)-3-[(cyclopropylmethyl)amino]-3-methylpyrrolidin-1-yl]pyridazin-3-yl}-4-fluoro-5-(6-methoxypyridazin-4-yl)phenol] | > 7.00 | 100 to 1000 | > 7.00 | > 7.00 | 100 to 1000 | 6.00 to 7.00 | 6.00 to 7.00 | 6.00 to 7.00 | – | – | – | – | – | – | – | – |
| COc1cc(-c2ccc(-c3ccc(N4CCC(N[C@H]5C[C@@H](OC)C5)C4)nn3)c(O)c2)cnn1 (stereo partly drawn) [Compound 404, 5-(6-methoxypyridazin-4-yl)-2-[6-(3-{[(1s,3s)-3-methoxycyclobutyl]amino}pyrrolidin-1-yl)pyridazin-3-yl]phenol] | > 7.00 | 100 to 1000 | > 7.00 | > 7.00 | 1000 to 10000 | 6.00 to 7.00 | 6.00 to 7.00 | 6.00 to 7.00 | – | – | – | – | – | – | – | – |
| CNc1cc(-c2ccc(-c3ccc(N4CC[C@@H](NC(C)(C)C)C4)nn3)c(O)c2)ncn1 [Compound 437, 2-{6-[(3R)-3-(tert-butylamino)pyrrolidin-1-yl]pyridazin-3-yl}-5-[6-(methylamino)pyrimidin-4-yl]phenol] | > 7.00 | < 100 | > 7.00 | > 7.00 | < 100 | > 7.00 | > 7.00 | > 7.00 | – | – | – | – | – | – | – | – |
| Cc1cc(-c2ccc(-c3ccc(N4CCC(NC5CCC5)C4)nn3)c(O)c2)cc2cn(C)nc12 (stereo not drawn) [Compound 318] | 6.00 to 7.00 | 100 to 1000 | 6.00 to 7.00 | 6.00 to 7.00 | > 10000 | 5.00 to 6.00 | 5.00 to 6.00 | 6.00 to 7.00 | – | – | – | – | – | – | – | – |
| COc1cc(-c2cc(O)c(-c3ccc(N4CC[C@H](NC5CCC5)C4)nn3)cc2F)cnn1 [Compound 231, 2-{6-[(3S)-3-(cyclobutylamino)pyrrolidin-1-yl]pyridazin-3-yl}-4-fluoro-5-(6-methoxypyridazin-4-yl)phenol] | > 7.00 | < 100 | > 7.00 | > 7.00 | 100 to 1000 | 6.00 to 7.00 | 6.00 to 7.00 | 6.00 to 7.00 | – | – | – | – | – | – | – | – |
| COc1nc(-c2ccc(N3CC[C@@H](NC(C)(C)C)C3)nn2)ccc1-c1cnc(C)s1 [Compound 405] | > 7.00 | < 100 | > 7.00 | > 7.00 | < 100 | > 7.00 | > 7.00 | > 7.00 | – | – | – | – | – | – | – | – |
| COc1cc(-c2ccc(-c3cc(C#N)c(OC4CC(C)(C)NC(C)(C)C4)nn3)c(O)c2)cnn1 [Compound 424] | 6.00 to 7.00 | 100 to 1000 | 6.00 to 7.00 | 6.00 to 7.00 | 1000 to 10000 | 5.00 to 6.00 | 5.00 to 6.00 | 5.00 to 6.00 | – | – | – | – | – | – | – | – |
| COc1cc(-c2ccc(-c3ccc(N4CCC(NCC5CC5)C4)nn3)c(O)c2)nc(C)n1 (stereo not drawn) [Compound 371] | 5.00 to 6.00 | 1000 to 10000 | 5.00 to 6.00 | 5.00 to 6.00 | > 10000 | < 5.00 | < 5.00 | < 5.00 | – | – | – | – | – | – | – | – |
